{"source": "patent US11167007B2", "about": "“FOXM1 modulators and uses thereof” (City of Hope, priority 2016, dated 2021)", "molecular_target": "T1, AR (Homo sapiens, UniProt P10275)", "T1 sequence (P10275 1-920)": "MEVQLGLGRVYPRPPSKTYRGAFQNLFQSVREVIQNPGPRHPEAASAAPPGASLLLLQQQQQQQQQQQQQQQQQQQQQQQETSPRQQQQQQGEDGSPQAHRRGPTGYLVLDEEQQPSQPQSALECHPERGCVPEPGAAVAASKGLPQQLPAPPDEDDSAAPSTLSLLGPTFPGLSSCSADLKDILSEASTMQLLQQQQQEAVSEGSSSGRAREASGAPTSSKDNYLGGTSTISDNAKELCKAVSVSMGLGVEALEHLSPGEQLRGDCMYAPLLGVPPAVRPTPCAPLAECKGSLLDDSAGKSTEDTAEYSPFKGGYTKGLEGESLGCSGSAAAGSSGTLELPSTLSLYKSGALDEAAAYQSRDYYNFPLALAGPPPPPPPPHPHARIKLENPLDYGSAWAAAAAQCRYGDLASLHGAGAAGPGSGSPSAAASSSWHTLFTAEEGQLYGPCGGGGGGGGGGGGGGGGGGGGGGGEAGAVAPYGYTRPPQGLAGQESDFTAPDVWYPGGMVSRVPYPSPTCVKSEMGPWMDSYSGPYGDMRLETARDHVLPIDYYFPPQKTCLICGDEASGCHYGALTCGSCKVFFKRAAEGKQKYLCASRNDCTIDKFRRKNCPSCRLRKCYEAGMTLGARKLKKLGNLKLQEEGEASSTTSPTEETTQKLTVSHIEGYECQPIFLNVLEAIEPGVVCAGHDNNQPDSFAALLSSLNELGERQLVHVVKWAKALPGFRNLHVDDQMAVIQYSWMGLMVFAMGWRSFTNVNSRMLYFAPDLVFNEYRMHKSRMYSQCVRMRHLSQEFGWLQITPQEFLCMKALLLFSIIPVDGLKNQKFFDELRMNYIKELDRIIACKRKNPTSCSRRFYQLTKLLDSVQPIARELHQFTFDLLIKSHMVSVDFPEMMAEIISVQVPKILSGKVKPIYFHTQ", "test": "FRET-based AR conformation change reporter (CARY) in HEK293 kidney cells", "type": "cell-based", "set-up": "Full length AR with cyan fluorescent protein (CFP) or yellow fluorescent protein (YFP) fused to either end (CARY); expressed in transfected cells", "procedure": "Creation of stable C-AR-Y reporter cell lines. Cell lines listed above were either transfected with a plasmid or a virus containing the CFP-AR-YFP construct preceding an IRES and hygromycin resistance gene and clonal stable cell lines selected. Qualification criteria for the transfected cell lines were described by Jones et al, ACS Chem Biol, 3(7):412-8 (2008).\nScreen for AR-modulators. Screening was performed essentially as described by Jones et al, ACS Chem Biol, 3(7):412-8 (2008). Briefly, C-AR-Y reporter GTI-7 were transferred to 96 well plates and treated with library compounds for 24 hours. […] The compounds to be tested were from the NCI/DTP Open Chemical Repository's Approved Oncology Drugs Set II, Diversity Set II and Mechanistic Set. […] After 24 hours, medium was aspirated and FRET was measured as previously described using a monochromator-based fluorescence plate reader (M1000, Tecan, Inc.). Jones et al, ACS Chem Biol, 3(7):412-8 (2008). […]\nIn order to identify potential cell-type selective AR modulators, the FRET-based assay of AR conformation change was utilized. […] This produces an accurate and quantifiable read-out of AR activity. […] Candidate hits were then further evaluated by dose response. […] In addition to FRET, AR transcriptional activity was also assessed in several cell lines by transfecting cells with a luciferase reporter driven by the human PSA promoter. […]", "data": [{"compound": "C=C(NC(=O)C(=C)NC(=O)c1csc(C2=N[C@@H]3c4csc(n4)[C@H]4NC(=O)c5csc(n5)[C@H]([C@](C)(O)[C@@H](C)O)NC(=O)[C@H]5CSC(=N5)/C(=C/C)NC(=O)[C@H]([C@@H](C)O)NC(=O)c5csc(n5)[C@]3(CC2)NC(=O)[C@H](C)NC(=O)C(=C)NC(=O)C(=C)NC(=O)[C@H](C(C)C)N[C@@H]2C=Cc3c([C@H](C)O)cc(nc3[C@H]2O)C(=O)O[C@@H]4C)n1)C(N)=O", "note": "[NSC285116, siomycin A]", "values": [{"measurement": "AR inhibitor activity in words", "value": "some activity"}]}]}
